Bounds are passed on as bounds.

A word on the melting point: it is the temperature, or range, at which the solid turns liquid. `CN1CCN(c2cccc3c2C[C@H](NC(=O)c2ccc(C(F)(F)F)cc2)CO3)CC1` [Example 19, (S)-N-[5-(4-Methylpiperazin-1-yl)-3,4-dihydro-2H-1-benzopyran-3-yl]-4-trifluoromethylbenzamide] gave a melting point of 212 to 214 °C.

`CN1CCN(c2cccc3c2C[C@H](NC(=O)c2ccc(N4CCN(CCO)CC4)cc2)CO3)CC1` [Example 48, (S)-N-[5-(4-Methylpiperazin-1-yl)-3,4 dihydro-2H-1-benzopyran-3-yl]-4-[4-(2-hydroxyethyl)-piperazin-1-yl]benzamide] gave a melting point of 211 to 212 °C.

Regarding `CN1CCN(c2cccc3c2C[C@H](NC(=O)c2ccc(N4CCOCC4)cc2)CO3)CC1` [Example 14, (S)-N-[5-(4-Methylpiperazin-1-yl)-3,4-dihydro-2H-1-benzopyran-3-yl]-4-morpholinobenzamide], the melting point lay within 210 to 212 °C.

Take `CC(=O)N1CCN(c2ccc(C(=O)N[C@@H]3COc4cccc(N5CCN(C)CC5)c4C3)cc2)CC1` [Example 44, (S)-N-[5-(4-Methylpiperazin-1-yl)-3,4 dihydro-2H-1-benzopyran-3-yl]-4-(4-acetylpiperazin-1-yl)benzamide]: the melting point was 88 °C (dec.).

In turn, `CN1CCN(c2cccc3c2C[C@H](NC(=O)c2ccc(C(F)(F)F)cc2C(F)(F)F)CO3)CC1` [Example 28, (S)-N-[5-(4-Methylpiperazin-1-yl)-3,4-dihydro-2H-1-benzopyran-3-yl]-2,4-bis(trifluoromethyl)benzamide] displayed a melting point of 202 to 203 °C.

`CN1CCN(c2cccc3c2C[C@H](NC(=O)c2ccc(N4CCNCC4)cc2)CO3)CC1` [Example 43, (S)-N-[5-(4-Methylpiperazin-1-yl)-3,4 dihydro-2H-1-benzopyran-3-yl]-4-(piperazin-1-yl)benzamide]: the melting point was > 102 °C.

Take `CN1CCN(c2cccc3c2C[C@H](NC(=O)c2ccc(N4CCNC(=O)CC4)cc2)CO3)CC1` [Example 35, (S)-N-[5-(4-Methylpiperazin-1-yl)-3,4-dihydro-2H-1-benzopyran-3-yl]-4-(hexa hydro-1,4-diazepin-5-on-1-yl)benzamide]: the melting point is 244 to 247 °C (dec.).

Take `CN1CCN(c2cccc3c2C[C@H](NC(=O)c2ccc(C(=O)N(C)C)cc2)CO3)CC1` [Example 46, (S)-N-[5-(4-Methylpiperazin-1-yl)-3,4-dihydro-2H-benzopyran-3-yl)-4-(N,N-dimethylaminocarbonyl)benzamide]: the melting point was 219 °C (dec.).

Take `CN1CCN(c2cccc3c2C[C@H](NC(=O)c2ccc(C(=O)N4CCOCC4)cc2)CO3)CC1` [Example 45, (S)-N-[5-(4-Methylpiperazin-1-yl)-3,4 dihydro-2H-1-benzopyran-3-yl)-4-(morpholinocarbonyl)benzamide]: the melting point was 222 °C (dec.).

(Values after patent publication US7384943B2, “Substituted chroman derivatives” (AstraZeneca AB, priority 1997, dated 2008).)
